Values belong to the compound of their own block, whether it stands above or below them.
Tests used:
[1] = target: H^+,K^+-ATPase Y799A (Sus scrofa, UniProt P19156, Y800A); test: ATPase assay, Y799A mutant; conditions: for -fold increase in K i compared with wild-type: Y799A
[2] = target: H^+,K^+-ATPase L139A (Sus scrofa, UniProt P19156, L140A); test: ATPase assay, L139A mutant; conditions: for -fold increase in K i compared with wild-type: L139A
[3] = target: H^+,K^+-ATPase Y140A (Sus scrofa, UniProt P19156, Y141A); test: ATPase assay, Y140A mutant; conditions: for -fold increase in K i compared with wild-type: Y140A
Chain of H^+,K^+-ATPase Y140A (P19156 whole entry Y141A): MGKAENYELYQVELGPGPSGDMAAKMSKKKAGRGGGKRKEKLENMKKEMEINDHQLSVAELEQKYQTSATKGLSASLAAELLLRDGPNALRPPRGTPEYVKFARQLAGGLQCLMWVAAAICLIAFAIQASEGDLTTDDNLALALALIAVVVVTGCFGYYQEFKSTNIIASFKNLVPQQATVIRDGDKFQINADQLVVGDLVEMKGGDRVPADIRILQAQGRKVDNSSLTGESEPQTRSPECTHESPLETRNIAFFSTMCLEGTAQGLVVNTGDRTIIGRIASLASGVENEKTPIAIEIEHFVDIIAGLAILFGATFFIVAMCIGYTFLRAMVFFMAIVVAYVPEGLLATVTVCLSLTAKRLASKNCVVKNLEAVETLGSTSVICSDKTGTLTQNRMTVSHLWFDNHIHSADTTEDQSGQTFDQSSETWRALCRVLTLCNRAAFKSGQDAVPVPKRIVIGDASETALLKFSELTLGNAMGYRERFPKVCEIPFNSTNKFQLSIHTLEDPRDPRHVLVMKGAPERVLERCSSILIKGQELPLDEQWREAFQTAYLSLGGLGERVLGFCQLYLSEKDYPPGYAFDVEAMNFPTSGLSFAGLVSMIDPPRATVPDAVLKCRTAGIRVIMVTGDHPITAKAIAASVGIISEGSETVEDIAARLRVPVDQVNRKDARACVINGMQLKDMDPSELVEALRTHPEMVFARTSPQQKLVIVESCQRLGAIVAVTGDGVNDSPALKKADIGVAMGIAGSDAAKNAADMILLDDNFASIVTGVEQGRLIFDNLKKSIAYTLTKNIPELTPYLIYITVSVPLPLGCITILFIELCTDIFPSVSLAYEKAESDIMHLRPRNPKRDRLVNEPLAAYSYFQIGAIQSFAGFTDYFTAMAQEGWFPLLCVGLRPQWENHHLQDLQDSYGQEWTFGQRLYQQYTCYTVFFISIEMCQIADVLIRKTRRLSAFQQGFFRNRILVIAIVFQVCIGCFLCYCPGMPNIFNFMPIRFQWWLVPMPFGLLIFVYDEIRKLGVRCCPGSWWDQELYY
Chain of H^+,K^+-ATPase Y140A (P18434 whole entry partner): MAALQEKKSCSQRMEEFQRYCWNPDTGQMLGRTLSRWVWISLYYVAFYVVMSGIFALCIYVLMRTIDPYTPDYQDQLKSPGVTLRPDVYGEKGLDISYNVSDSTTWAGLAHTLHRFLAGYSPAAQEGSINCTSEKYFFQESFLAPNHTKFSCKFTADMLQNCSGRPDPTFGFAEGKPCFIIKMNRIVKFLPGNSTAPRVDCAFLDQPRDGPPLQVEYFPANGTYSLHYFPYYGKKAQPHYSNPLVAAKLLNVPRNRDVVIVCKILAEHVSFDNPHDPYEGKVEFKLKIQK

[4] = target: H^+,K^+-ATPase D136F (Sus scrofa, UniProt P19156, D137F); test: ATPase assay, D136F mutant; conditions: for -fold increase in K i compared with wild-type: D136F
[5] = target: H^+,K^+-ATPase (Sus scrofa, UniProt P19156); test: Dose-dependent inhibition of H^+,K^+-ATPase activity in the presence of 10 mM KCl
Method: Reactions were initiated by incubating at 37 °C using a thermal cycler, and maintained for 1 to 5 h (depending on the activity). Reactions were terminated by withdrawing 40 μL from the 80 μL reactant, and mixing with 80 μL of stop solution comprising 6% ascorbic acid and 2% ammonium molybdate in 1 N HCl, followed by the addition of 120 μL of 2% sodium arsenate, 2% sodium citrate, and 2% acetic acid. The amount of released inorganic phosphate was determined colorimetrically[39] from absorbance at 850 nm by the microplate reader (TECAN).

[6] = target: H^+,K^+-ATPase D137A (Sus scrofa, UniProt P19156, D138A); test: ATPase assay, D137A mutant; conditions: for -fold increase in K i compared with wild-type: D137A
[7] = target: H^+,K^+-ATPase Y140F (Sus scrofa, UniProt P19156, Y141F); test: ATPase assay, Y140F mutant; conditions: for -fold increase in K i compared with wild-type: Y140F
[8] = target: H^+,K^+-ATPase L141I (Sus scrofa, UniProt P19156, L142I); test: ATPase assay, L141I mutant; conditions: for -fold increase in K i compared with wild-type: L141I
[9] = target: H^+,K^+-ATPase D136I (Sus scrofa, UniProt P19156, D137I); test: ATPase assay, D136I mutant; conditions: for -fold increase in K i compared with wild-type: D136I
[10] = target: H^+,K^+-ATPase L139I (Sus scrofa, UniProt P19156, L140I); test: ATPase assay, L139I mutant; conditions: for -fold increase in K i compared with wild-type: L139I
Chain of H^+,K^+-ATPase L139I (P19156 whole entry L140I): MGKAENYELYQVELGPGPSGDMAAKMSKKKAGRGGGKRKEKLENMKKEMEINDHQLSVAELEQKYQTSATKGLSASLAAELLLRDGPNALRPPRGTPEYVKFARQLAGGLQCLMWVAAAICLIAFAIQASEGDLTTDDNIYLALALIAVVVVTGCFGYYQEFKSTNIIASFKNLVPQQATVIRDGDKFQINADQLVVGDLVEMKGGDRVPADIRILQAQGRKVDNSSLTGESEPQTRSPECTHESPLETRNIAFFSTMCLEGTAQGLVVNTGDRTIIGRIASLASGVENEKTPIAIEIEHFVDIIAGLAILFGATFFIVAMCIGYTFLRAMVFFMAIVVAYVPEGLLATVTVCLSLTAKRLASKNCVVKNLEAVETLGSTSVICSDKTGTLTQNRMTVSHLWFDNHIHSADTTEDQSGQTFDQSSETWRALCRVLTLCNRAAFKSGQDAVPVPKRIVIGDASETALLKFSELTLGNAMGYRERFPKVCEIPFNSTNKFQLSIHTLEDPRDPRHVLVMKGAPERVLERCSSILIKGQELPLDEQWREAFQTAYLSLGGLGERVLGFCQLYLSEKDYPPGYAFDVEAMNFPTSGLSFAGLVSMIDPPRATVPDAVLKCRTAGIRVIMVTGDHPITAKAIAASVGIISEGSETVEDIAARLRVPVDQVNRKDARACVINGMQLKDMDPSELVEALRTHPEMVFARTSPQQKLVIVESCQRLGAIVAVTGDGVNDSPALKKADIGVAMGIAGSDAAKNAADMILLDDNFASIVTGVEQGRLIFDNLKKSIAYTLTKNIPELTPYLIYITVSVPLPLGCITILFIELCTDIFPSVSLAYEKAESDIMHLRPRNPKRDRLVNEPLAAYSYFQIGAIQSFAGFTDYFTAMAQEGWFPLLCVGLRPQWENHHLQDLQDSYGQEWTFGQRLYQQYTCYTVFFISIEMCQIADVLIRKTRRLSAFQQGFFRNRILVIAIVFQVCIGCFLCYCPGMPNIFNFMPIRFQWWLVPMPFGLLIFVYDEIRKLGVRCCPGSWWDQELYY
Chain of H^+,K^+-ATPase L139I (P18434 whole entry partner): as the sequence (P18434 whole entry partner) above

[11] = target: T1, H^+,K^+-ATPase WT (Sus scrofa, UniProt P19156); test: K^+-competitive inhibition of H^+,K^+-ATPase activity, 96-well ATPase assay, wild-type; assay type: biochemical, pig; conditions: for -fold increase in K i compared with wild-type / Ki: WT; for Ki: global fitting, mean ± SEM
T1 construct: made in house; host or cells: HEK293S GnT1- cells (BacMam baculovirus transduction); permeabilised membrane fractions

[12] = target: H^+,K^+-ATPase D136A (Sus scrofa, UniProt P19156, D137A); test: ATPase assay, D136A mutant; conditions: for -fold increase in K i compared with wild-type: D136A
[13] = target: H^+,K^+-ATPase Y799F (Sus scrofa, UniProt P19156, Y800F); test: ATPase assay, Y799F mutant; conditions: for -fold increase in K i compared with wild-type: Y799F
Chain of H^+,K^+-ATPase Y799F (P19156 whole entry Y800F): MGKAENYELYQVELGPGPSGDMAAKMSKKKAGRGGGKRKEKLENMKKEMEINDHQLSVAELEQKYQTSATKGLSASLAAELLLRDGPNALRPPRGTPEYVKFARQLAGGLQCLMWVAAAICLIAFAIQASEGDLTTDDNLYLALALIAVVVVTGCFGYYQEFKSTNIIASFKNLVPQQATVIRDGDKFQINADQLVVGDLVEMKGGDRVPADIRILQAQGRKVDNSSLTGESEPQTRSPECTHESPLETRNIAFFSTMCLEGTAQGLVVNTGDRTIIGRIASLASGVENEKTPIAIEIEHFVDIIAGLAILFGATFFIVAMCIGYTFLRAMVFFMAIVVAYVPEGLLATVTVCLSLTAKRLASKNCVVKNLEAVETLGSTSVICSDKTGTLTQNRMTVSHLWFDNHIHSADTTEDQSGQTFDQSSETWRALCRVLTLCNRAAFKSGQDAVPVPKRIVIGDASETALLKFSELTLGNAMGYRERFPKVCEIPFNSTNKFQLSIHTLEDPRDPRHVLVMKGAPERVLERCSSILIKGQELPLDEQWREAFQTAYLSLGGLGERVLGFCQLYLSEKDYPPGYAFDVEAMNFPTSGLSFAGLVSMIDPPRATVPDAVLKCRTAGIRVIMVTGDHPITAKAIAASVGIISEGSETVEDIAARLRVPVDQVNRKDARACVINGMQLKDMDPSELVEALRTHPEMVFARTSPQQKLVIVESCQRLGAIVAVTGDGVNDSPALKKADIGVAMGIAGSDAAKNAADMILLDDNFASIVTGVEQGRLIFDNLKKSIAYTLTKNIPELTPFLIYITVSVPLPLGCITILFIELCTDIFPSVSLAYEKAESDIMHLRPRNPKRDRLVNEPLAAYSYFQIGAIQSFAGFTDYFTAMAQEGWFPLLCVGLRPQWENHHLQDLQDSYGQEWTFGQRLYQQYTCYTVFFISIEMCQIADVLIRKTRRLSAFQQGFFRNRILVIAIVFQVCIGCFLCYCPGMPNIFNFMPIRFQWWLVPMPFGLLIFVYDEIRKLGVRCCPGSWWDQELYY
Chain of H^+,K^+-ATPase Y799F (P18434 whole entry partner): as the sequence (P18434 whole entry partner) above

[14] = target: H^+,K^+-ATPase N138I (Sus scrofa, UniProt P19156, N139I); test: ATPase assay, N138I mutant; conditions: for -fold increase in K i compared with wild-type: N138I
[15] = target: H^+,K^+-ATPase L139F (Sus scrofa, UniProt P19156, L140F); test: ATPase assay, L139F mutant; conditions: for -fold increase in K i compared with wild-type: L139F
Chain of H^+,K^+-ATPase L139F (P19156 whole entry L140F): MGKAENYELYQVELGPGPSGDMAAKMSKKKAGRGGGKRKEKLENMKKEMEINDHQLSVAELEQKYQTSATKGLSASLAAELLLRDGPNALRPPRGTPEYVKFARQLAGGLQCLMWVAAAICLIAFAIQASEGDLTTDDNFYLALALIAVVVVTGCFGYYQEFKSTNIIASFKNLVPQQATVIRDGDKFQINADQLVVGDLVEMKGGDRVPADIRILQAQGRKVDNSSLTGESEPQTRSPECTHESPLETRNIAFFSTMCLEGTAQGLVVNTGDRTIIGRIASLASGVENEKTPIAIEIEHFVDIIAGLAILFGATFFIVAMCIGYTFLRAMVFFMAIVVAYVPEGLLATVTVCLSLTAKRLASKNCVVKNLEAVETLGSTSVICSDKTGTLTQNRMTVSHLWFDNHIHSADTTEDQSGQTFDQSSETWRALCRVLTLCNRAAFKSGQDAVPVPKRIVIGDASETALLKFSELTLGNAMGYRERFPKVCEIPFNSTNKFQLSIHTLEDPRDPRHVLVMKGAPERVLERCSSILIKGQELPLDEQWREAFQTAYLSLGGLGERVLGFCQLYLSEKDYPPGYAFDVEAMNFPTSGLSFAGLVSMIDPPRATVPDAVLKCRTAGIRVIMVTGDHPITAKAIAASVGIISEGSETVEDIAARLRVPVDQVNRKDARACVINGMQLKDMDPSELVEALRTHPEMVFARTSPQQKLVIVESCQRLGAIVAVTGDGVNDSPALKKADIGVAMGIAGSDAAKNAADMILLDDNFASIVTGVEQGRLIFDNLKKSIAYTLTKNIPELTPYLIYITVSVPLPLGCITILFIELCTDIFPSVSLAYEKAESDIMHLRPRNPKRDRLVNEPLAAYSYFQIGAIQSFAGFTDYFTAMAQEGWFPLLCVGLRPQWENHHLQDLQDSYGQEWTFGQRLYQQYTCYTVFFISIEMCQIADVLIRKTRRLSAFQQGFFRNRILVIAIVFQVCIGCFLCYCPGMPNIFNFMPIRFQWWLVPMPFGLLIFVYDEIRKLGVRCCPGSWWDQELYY
Chain of H^+,K^+-ATPase L139F (P18434 whole entry partner): as the sequence (P18434 whole entry partner) above

[16] = target: H^+,K^+-ATPase Y140I (Sus scrofa, UniProt P19156, Y141I); test: ATPase assay, Y140I mutant; conditions: for -fold increase in K i compared with wild-type: Y140I
[17] = target: H^+,K^+-ATPase N138A (Sus scrofa, UniProt P19156, N139A); test: ATPase assay, N138A mutant; conditions: for -fold increase in K i compared with wild-type: N138A
[18] = target: H^+,K^+-ATPase D137L (Sus scrofa, UniProt P19156, D138L); test: ATPase assay, D137L mutant; conditions: for -fold increase in K i compared with wild-type: D137L
[19] = target: H^+,K^+-ATPase D137F (Sus scrofa, UniProt P19156, D138F); test: ATPase assay, D137F mutant; conditions: for -fold increase in K i compared with wild-type: D137F
[20] = target: H^+,K^+-ATPase D136L (Sus scrofa, UniProt P19156, D137L); test: ATPase assay, D136L mutant; conditions: for -fold increase in K i compared with wild-type: D136L
[21] = target: H^+,K^+-ATPase N138L (Sus scrofa, UniProt P19156, N139L); test: ATPase assay, N138L mutant; conditions: for -fold increase in K i compared with wild-type: N138L
[22] = target: H^+,K^+-ATPase A335G (Sus scrofa, UniProt P19156, A336G); test: ATPase assay, A335G mutant; conditions: for -fold increase in K i compared with wild-type: A335G
[23] = target: H^+,K^+-ATPase D137I (Sus scrofa, UniProt P19156, D138I); test: ATPase assay, D137I mutant; conditions: for -fold increase in K i compared with wild-type: D137I
[24] = target: H^+,K^+-ATPase N138F (Sus scrofa, UniProt P19156, N139F); test: ATPase assay, N138F mutant; conditions: for -fold increase in K i compared with wild-type: N138F
[25] = target: H^+,K^+-ATPase Y140L (Sus scrofa, UniProt P19156, Y141L); test: ATPase assay, Y140L mutant; conditions: for -fold increase in K i compared with wild-type: Y140L
[26] = target: H^+,K^+-ATPase A335C/C813A (Sus scrofa, UniProt P19156, A336C/C814A); test: ATPase assay, A335C/C813A mutant
[27] = target: H^+,K^+-ATPase L809F (Sus scrofa, UniProt P19156, L810F); test: ATPase assay, L809F mutant

Ki [1]: > 200 µM
-fold increase in K i compared with wild-type [1]: > 40 fold
Ki [2]: 5.8 ± 0.6 µM
-fold increase in K i compared with wild-type [2]: 1.2 fold
Ki [3]: 14 ± 2 µM
-fold increase in K i compared with wild-type [3]: 2.9 fold
Ki [4]: 4 ± 0.2 µM
-fold increase in K i compared with wild-type [4]: 0.8 fold
IC50 [5]: 29 µM
Ki [6]: 120 ± 30 µM
-fold increase in K i compared with wild-type [6]: 25 fold
Ki [7]: 7.6 ± 0.5 µM
-fold increase in K i compared with wild-type [7]: 1.6 fold
Ki [8]: 3.9 ± 0.8 µM
-fold increase in K i compared with wild-type [8]: 0.8 fold
Ki [9]: 6.7 ± 0.4 µM
-fold increase in K i compared with wild-type [9]: 1.4 fold
Ki [10]: 1.7 ± 0.2 µM
-fold increase in K i compared with wild-type [10]: 0.3 fold
-fold increase in K i compared with wild-type [11]: 1.0 fold
fold lower affinity compared with BYK99 ([11]; WT enzyme): 1000 fold
Ki [11]: 4.9 ± 0.4 µM
Ki [12]: 9 ± 0.5 µM
-fold increase in K i compared with wild-type [12]: 1.8 fold
Ki [13]: 21 ± 2.7 µM
-fold increase in K i compared with wild-type [13]: 4.3 fold
Ki [14]: 62 ± 17 µM
-fold increase in K i compared with wild-type [14]: 13 fold
Ki [15]: 8.9 ± 0.7 µM
-fold increase in K i compared with wild-type [15]: 1.8 fold
Ki [16]: 4 ± 0.5 µM
-fold increase in K i compared with wild-type [16]: 0.8 fold
Ki [17]: 6.6 ± 0.8 µM
-fold increase in K i compared with wild-type [17]: 1.3 fold
Ki [18]: > 100 µM
-fold increase in K i compared with wild-type [18]: > 20 fold
Ki [19]: 110 ± 10 µM
-fold increase in K i compared with wild-type [19]: 22 fold
Ki [20]: 3.2 ± 0.2 µM
-fold increase in K i compared with wild-type [20]: 0.7 fold
Ki [21]: > 100 µM
-fold increase in K i compared with wild-type [21]: > 20 fold
Ki [22]: 0.078 ± 0.006 µM
-fold increase in K i compared with wild-type [22]: 0.016 fold
fold increased affinity ([22]; A335G vs WT): more than 60 fold
Ki [23]: 32 ± 5 µM
-fold increase in K i compared with wild-type [23]: 6.5 fold
Ki [24]: > 100 µM
-fold increase in K i compared with wild-type [24]: > 20 fold
Ki [25]: 6.5 ± 0.6 µM
-fold increase in K i compared with wild-type [25]: 1.3 fold
Compound: Cc1nc2c3c(ccn2c1C)[C@@H](O)[C@H](O)[C@@H](c1ccccc1)N3C [BYK73]

Ki [1]: 740 ± 170 µM
-fold increase in K i compared with wild-type [1]: 67 fold
Ki [26]: 4200 ± 2300 µM
-fold increase in K i compared with wild-type ([26]; A335C/C813A): 382 fold
Ki [2]: 8.7 ± 0.7 µM
-fold increase in K i compared with wild-type [2]: 0.8 fold
Ki [3]: 13 ± 1 µM
-fold increase in K i compared with wild-type [3]: 1.2 fold
Ki [4]: 6.7 ± 0.5 µM
-fold increase in K i compared with wild-type [4]: 0.6 fold
IC50 [5]: 54 µM
Ki [6]: 61 ± 7 µM
-fold increase in K i compared with wild-type [6]: 5.5 fold
Ki [7]: 21 ± 3 µM
-fold increase in K i compared with wild-type [7]: 1.9 fold
Ki [8]: 7.3 ± 0.8 µM
-fold increase in K i compared with wild-type [8]: 0.7 fold
Ki [9]: 6.8 ± 0.6 µM
-fold increase in K i compared with wild-type [9]: 0.6 fold
Ki [10]: 2.3 ± 0.3 µM
-fold increase in K i compared with wild-type [10]: 0.2 fold
-fold increase in K i compared with wild-type [11]: 1.0 fold
Ki [11]: 11 ± 0.1 µM
Ki [12]: 11 ± 1 µM
-fold increase in K i compared with wild-type [12]: 1.0 fold
Ki [13]: 31 ± 3 µM
-fold increase in K i compared with wild-type [13]: 2.8 fold
Ki [14]: 0.95 ± 0.23 µM
-fold increase in K i compared with wild-type [14]: 0.09 fold
Ki [27]: 110 ± 20 µM
-fold increase in K i compared with wild-type ([27]; L809F): 10 fold
Ki [15]: 13 ± 1 µM
-fold increase in K i compared with wild-type [15]: 1.2 fold
Ki [16]: 5 ± 0.8 µM
-fold increase in K i compared with wild-type [16]: 0.5 fold
Ki [17]: 0.56 ± 0.08 µM
-fold increase in K i compared with wild-type [17]: 0.05 fold
Ki [18]: 270 ± 100 µM
-fold increase in K i compared with wild-type [18]: 25 fold
Ki [19]: 34 ± 7 µM
-fold increase in K i compared with wild-type [19]: 3.1 fold
Ki [20]: 5.4 ± 0.5 µM
-fold increase in K i compared with wild-type [20]: 0.5 fold
Ki [21]: 23 ± 7 µM
-fold increase in K i compared with wild-type [21]: 2.1 fold
Ki [22]: 1.6 ± 0.2 µM
-fold increase in K i compared with wild-type [22]: 0.15 fold
Ki [23]: 170 ± 40 µM
-fold increase in K i compared with wild-type [23]: 16 fold
Ki [24]: 320 ± 300 µM
-fold increase in K i compared with wild-type [24]: 29 fold
Ki [25]: 3.7 ± 0.4 µM
-fold increase in K i compared with wild-type [25]: 0.3 fold
Compound: N#CCc1cnc2c(OCc3ccccc3)cccn12 [SCH-Me^−]

From paper PMC5529566, “The cryo-EM structure of gastric H^+,K^+-ATPase with bound BYK99, a high-affinity member of K^+-competitive, imidazo[1,2-a]pyridine inhibitors” (Scientific Reports, 2017)
